# According to PMC2950628 (Journal of medicinal chemistry, 2008):
# System: not listed separately
# Assay: Solubility in D2O confirmed by NMR
# Type: physicochemical
# Settings: not given
row,SMILES,solubility
1,"CCCCC(=O)c1ccc(OC)c(OC2CCNCC2)c1 [5i, 1-[4-Methoxy-3-(piperidin-4-yloxy)phenyl]pentan-1-one]",≤ 800 µM

# Same assay, conditions: NMR study conditions
row,SMILES,solubility / behaviour in NMR sample
1,"CCCC(=O)c1ccc(OC(F)F)c(Oc2ccccn2)c1 [5zi, 1-[4-Difluoromethoxy-3-(pyridin-2-yloxy)phenyl]butan-1-one]",solubility and nonspecific binding problems

# System: PDE4
# Assay: not given
# Settings: Table 5, external test set s1–s9 from literature ref 19; cited from earlier work
row,SMILES,actual pIC50
1,COc1ccc(C(=O)Nc2ccccc2F)cc1OC1CCCC1 [s1],4.97
2,COc1ccc(C(=O)Nc2c(F)cccc2F)cc1OC1CCCCC1 [s5],6.40
3,COc1ccc(C(=O)Nc2c(Cl)cccc2Cl)cc1OC1CCCC1 [s3],7.55
4,COc1ccc(C(=O)Nc2c(F)cccc2F)cc1O [s4],4.43
5,COc1ccc(C(=S)Nc2c(Cl)cccc2Cl)cc1OC1CCCC1 [s9],6.70
6,COc1ccc(C(=O)Nc2c(F)cccc2F)cc1OC1CCCC1 [s6],7.15
7,COc1ccc(C(=O)Nc2ccccc2Cl)cc1OC [s7],6.19
8,COc1ccc(C(=O)Nc2ccccc2C(F)(F)F)cc1OC1CCCC1 [s2],5.51
9,CCCOc1cc(C(=O)Nc2c(F)cccc2F)ccc1OC [s8],5.80
